Test results reported in patent EP2072521A1, “Octahedral metal (III) polypyridyl complexes and their use in prevention and treatment of cancer” (Freie Universität Berlin, priority 2007, dated 2009).
Where two headings read alike, the source gives them in different places. Values belong to the compound of their own block, whether it stands above or below them.

How the values were obtained:
[1] = test system: MCF-7 breast cancer; assay: Antiproliferative effects, crystal violet staining, MCF-7 cells; type: cell-based, human
Procedure: (§1) MCF-7 breast cancer and HT-29 human colon carcinoma cells were maintained in 10 % (v/v) fetal calf serum containing cell culture medium (minimum essential eagle supplemented with 2.2 g NaHCO3, 110 mg/L sodium pyruvate and 50 mg/L gentamicin sulfate adjusted to pH 7.4) at 37°C/5 % CO2 and passaged twice a week according to standard procedures. The antiproliferative effects of Rh1a - Rh5a were determined by an established procedure. Cells were suspended in cell culture medium (MCF-7: 10000 cells/mL, HT-29: 2850 cells/mL), and 100 µL aliquots thereof were plated in 96 well plates and incubated at 37°C/5 % CO2 for 72 h (MCF-7) or 48 h (HT-29). Stock solutions of the compounds in DMSO were freshly prepared and diluted with cell culture medium to the desired concentrations (final DMSO concentration: 0.1 % v/v). The medium in the plates was replaced with the medium containing the compounds in graded concentrations (six replicates). After further incubation for 96 h (MCF-7) or 72 h (HT-29) the cell biomass was determined by crystal violet staining and the IC50 values were established as those concentrations causing 50 % inhibition of cell proliferation. Results were calculated from 2 - 3 independent experiments. The results are summarized in Tab. 1 and Fig. 4. Table 1 IC50 values (µM) for the complexes mer-[RhCl3(DMSO)(pp)] Rh1a - Rh5a
(§2) The antiproliferative effects of the compounds Ir1a - Ir5a were determined as described in Example 2.

[2] = test system: HT-29 human colon carcinoma cells; assay: Antiproliferative effects, crystal violet staining, HT-29 cells; type: cell-based
Procedure: as §1, §2

[3] = test system: HT-29; assay: Cellular uptake of iridium (GF-AAS), HT-29 cells; type: cell-based, human; details: 6 h, 0.0: value below the detection limit; for HT-29 uptake 10 µM: 10 µM complex; for HT-29 uptake 100 µM: 100 µM complex
Procedure: (§3) For cellular uptake studies, HT-29 and MCF-7 cells were grown until at least 70 % confluency in 175 cm^2 cell culture flasks. Stock solutions of complexes Ir1a - Ir5a in DMSO were freshly prepared and diluted with cell culture medium to the desired concentrations (final DMSO concentrations: 0.1 % v/v, final complex concentration: 10 or 100 µM). The cell culture medium of the cell culture flasks was replaced with 10 mL of the cell culture medium solutions containing Ir1a - Ir5a (10 µM or 100 µM) and the flasks were incubated for 6 h at 37°C/5 % CO2. The cell pellets were isolated, resuspended in 1 - 5 mL […], lysed by using a sonotrode and approximately diluted using twice distilled water. The iridium content of the samples was determined by graphite furnace atomic absorption spectroscopy (GF-AAS) and the protein content of separate aliquots by the Bradford method. To correct for matrix effects in GF-AAS measurements, samples and standards were adjusted to the same protein concentration by dilution with twice distilled water. Prior to GF-AAS analysis 20 µL triton X-100 (1 %) and 20 µL hydrochloric acid were added to each 200 µL sample of the cell suspensions. Cellular uptake was expressed as ng iridium per mg cell protein for data obtained from 3 independent experiments. Conversion of the ng iridium/mg protein value to the micromolar cellular concentration was performed as described previously.
(§4) A Vario 6 graphite furnace atomic absorption spectrometer (Analytik Jena) was employed for the lr quantification using a wavelength of 208.9 nm with a bandpass of 0.5 nm. A deuterium lamp was used for background correction. Matrix containing standards were obtained by addition of an iridium stock solution (1 mg/mL lr in 5 % HCl). 18 % hydrochloric acid solution was employed as a modifier. Probes were injected at a volume of 25 µL into graphite tubes. The detection limit for the method was 3.8 µg Ir L^-1. The mean AUC (area under curve) absorptions of duplicate injections were used throughout the study.

[4] = test system: MCF-7 cells; assay: Cellular uptake of iridium (GF-AAS), MCF-7 cells; type: cell-based, human; details: 6 h; for MCF-7 uptake 10 µM: 10 µM complex, 0.0: value below the detection limit; for MCF-7 uptake 100 µM: 100 µM complex
Procedure: as §3, §4

[5] = test system: tumour cell lines; details: references [7, 8]; cited from earlier work
[6] = references [3], [4]; cited from earlier work
[7] = test system: MCF-7 breast cancer; details: references [5, 6]; cited from earlier work
[8] = test system: HT-29 human colon carcinoma cells; details: references [5, 6]; cited from earlier work
[9] = test system: LoVo (colon carcinoma); details: Mestroni et al. [1]; cited from earlier work
[10] = test system: Calu (lung carcinoma); details: Mestroni et al. [1]; cited from earlier work
[11] = test system: A 2780 (ovarian carcinoma); details: Mestroni et al. [1]; cited from earlier work
[12] = test system: mouse P 388 leukemia; details: reference [2]; cited from earlier work
[13] = Stability and isomerization in solution (1H NMR); type: physicochemical; details: in DMSO
[14] = Table 1, 96 h incubation, 2 - 3 independent experiments, spread in parentheses
[15] = Table 2, determined as described in Example 2
[16] = Table 1, 72 h incubation, 2 - 3 independent experiments, spread in parentheses

Compound: N.N.[Cl][Pt][Cl] [Cisplatin, reference compound]
IC50 [1, 14]: 2 µM
IC50 [1, 15]: 2 µM
IC50 [2, 16]: 7 µM
IC50 [2, 15]: 7 µM

IC50 [1, 15]: 4.6 µM
IC50 [2, 15]: 4.6 µM
Compound: CO.C[S+](C)(=O)[Ir-3]1([Cl])([Cl])([Cl])[n+]2cccc3ccc4ccc[n+]1c4c32.O [Ir2a, fac-[IrCl3(DMSO)(phen)]·CH3OH·H2O]
HT-29 uptake 10 µM [3]: 0.0 ng Ir/mg protein
HT-29 uptake 100 µM [3]: 21.2(5.2) ng Ir/mg protein
MCF-7 uptake 10 µM [4]: 0.0 ng Ir/mg protein
MCF-7 uptake 100 µM [4]: 74.4(13.5) ng Ir/mg protein

Compound: [Cl][Ir-]([Cl])([Cl])[Cl].c1c[nH+]c[nH]1.c1c[nH]cn1.c1c[nH]cn1 [[ImH][trans-IrCl4(Im)2]]
biological activity [5]: biologically inactive

IC50 ([1]; Homo sapiens, MCF7, Table 1, 96 h incubation, 2 - 3 independent experiments, spread in parentheses): 0.8 µM
IC50 ([1]; Homo sapiens, MCF7, Table 2, determined as described in Example 2): 0.8 µM
IC50 ([2]; Homo sapiens, HT-29, Table 1, 72 h incubation, 2 - 3 independent experiments, spread in parentheses): 1.8 µM
IC50 ([2]; Homo sapiens, HT-29, Table 2, determined as described in Example 2): 1.8 µM
Compound: c1ccc2nc3c4cccnc4c4ncccc4c3nc2c1 [dppz, dipyrido[3,2-a:2',3'-c]phenazine, reference compound]

Compound: C1CSCCSCCN1.[Cl][Rh]([Cl])[Cl] [fac-[RhCl3(9-[ane]-NS2)]]
cytotoxicity [6]: exhibit cytotoxicity

Compound: [Cl][Rh]([Cl])[Cl].c1ccc(-c2cccc(-c3ccccn3)n2)nc1 [mer-[RhCl3(tpy)]]
cytotoxicity [6]: exhibit cytotoxicity

Compound: [(DMSO)2H] [[(DMSO)2H] [trans-IrCl4(DMSO)2]]
biological activity [5]: biologically inactive

IC50 [1, 15]: 2.3 µM
IC50 [2, 15]: 7.4 µM
Compound: [(η^5-C5Me5)IrCl(dppz)](CF3SO3) [compound 6, reference compound]
HT-29 uptake 10 µM [3]: 70.4(1.0) ng Ir/mg protein
IC50 [7]: 2.3 µM
IC50 [8]: 7.4 µM

IC50 [1, 15]: 0.17 µM
IC50 [2, 15]: 0.41 µM
Compound: [(η^5-C5Me5)Ir{(Me2N)2CS}(dppn)](CF3SO3) [compound 7, reference compound]
HT-29 uptake 10 µM [3]: 149.6(7.8) ng Ir/mg protein

Compound: [ImH][trans-IrCl4(DMSO)(Im)]
biological activity [5]: biologically inactive

Compound: [Rh(Im)(tpy)2]Cl·3H2O
cytotoxicity [6]: exhibit cytotoxicity

IC50 [1, 15]: 0.8 µM
IC50 [2, 15]: 1.5 µM
Compound: fac-[IrC/3(DMSO)(dppz)]·2H2O [Ir4a]
HT-29 uptake 10 µM [3]: 11.9(3.0) ng Ir/mg protein
HT-29 uptake 100 µM [3]: 1664.4(473.1) ng Ir/mg protein
MCF-7 uptake 10 µM [4]: 3.3(3.3) ng Ir/mg protein
MCF-7 uptake 100 µM [4]: 644.0(149.1) ng Ir/mg protein

IC50 [1, 15]: 5.5 µM
IC50 [2, 15]: 6.1 µM
Compound: fac-[IrC/3(DMSO)(dpq)·3H2O [Ir3a]
HT-29 uptake 10 µM [3]: 0.0 ng Ir/mg protein
HT-29 uptake 100 µM [3]: 167.8(3.4) ng Ir/mg protein
MCF-7 uptake 10 µM [4]: 0.3(0.3) ng Ir/mg protein
MCF-7 uptake 100 µM [4]: 640.5(148.9) ng Ir/mg protein

IC50 [1, 15]: > 100 µM
IC50 [2, 15]: > 100 µM
Compound: fac-[IrCl3(DMSO)(bpy)·2H2O [Ir1a]
HT-29 uptake 10 µM [3]: 0.0 ng Ir/mg protein
HT-29 uptake 100 µM [3]: 0.0 ng Ir/mg protein

IC50 [1, 15]: 0.21 µM
IC50 [2, 15]: 1.3 µM
Compound: fac-[IrCl3(DMSO)(dppn)]·2CH3OH [Ir5a]
HT-29 uptake 10 µM [3]: 37.4(8.9) ng Ir/mg protein
HT-29 uptake 100 µM [3]: 226.1(26.6) ng Ir/mg protein
MCF-7 uptake 10 µM [4]: 19.3(0.8) ng Ir/mg protein
MCF-7 uptake 100 µM [4]: 180.8(2.7) ng Ir/mg protein

Compound: mer,cis-[RhCl3(DMSO-κS)(Im)2]
IC50 [9]: 40 ± 15 µM
IC50 [10]: > 200 µM
IC50 [11]: > 200 µM

Compound: mer,cis-[RhCl3(DMSO-κS)(py)2]
Activity against mouse P 388 leukemia [12]: Activity

IC50 [1, 14]: 4 µM
IC50 [2, 16]: 1.9 µM
Compound: mer-[RhCl3(DMSO)(bpy)] [Rh1a]
isomerization [13]: isomerize rapidly to a mixture of fac- and mer-isomers

IC50 [1, 14]: 0.051 µM
IC50 [2, 16]: 0.07 µM
Compound: mer-[RhCl3(DMSO)(dppn)] [Rh5a]

IC50 [1, 14]: 0.095 µM
IC50 [2, 16]: 0.073 µM
Compound: mer-[RhCl3(DMSO)(dppz)]·1.5H2O [Rh4a]

IC50 [1, 14]: 0.079 µM
IC50 [2, 16]: 0.069 µM
Compound: mer-[RhCl3(DMSO)(dpq)] [Rh3a]

IC50 [1, 14]: 0.4 µM
IC50 [2, 16]: 0.19 µM
Compound: mer-[RhCl3(DMSO)(phen)]·H2O [Rh2a]
isomerization [13]: isomerize rapidly to a mixture of fac- and mer-isomers
